Measured values reported in patent US20250161216A1, “CATIONIC LIPID ANALOGUES, COMPOSITIONS AND USES THEREOF” (GUANGZHOU LIDE BIOMEDICINE TECHNOLOGY CO., LTD., priority 2022, published 2025).

Legend:
C57BL/6 mice [1] = test: In vivo expression level of Luciferase-mRNA delivered by intramuscular injection (bioluminescence imaging); conditions: mRNA-loaded nanoparticles, compounds of Example 2; intramuscular (leg muscle), 5 μg Luciferase-mRNA, 6 hours
Procedure: (§1) Luciferase-mRNA was used as an mRNA model; and the cationic lipid analogues of Examples 1-5 were used to prepare drug-loaded nanoparticles according to the method of Example 6.
(§2) 100 μL of nanoparticles containing 5 μg Luciferase-mRNA or the drug-loaded nanoparticles prepared above were injected into the leg muscles of 6-8 week-old C57BL/6 mice, and 200 μL of 1×PBS solution containing 3 mg D-Luciferin potassium salt was intraperitoneally injected into the mice 6 hours later. After waiting for 10 minutes, an in vivo expression level of the mRNA was evaluated by bioluminescence imaging.

C57BL/6 mice [2] = test: In vivo expression level of Luciferase-mRNA delivered by intravenous injection (bioluminescence imaging); conditions: mRNA-loaded nanoparticles, intravenous (tail vein), 5 μg Luciferase-mRNA, 6 hours; for Fluorescence intensity of liver: compounds of Example 1
Procedure: as §1
as §2, with “200” for “100”, “tail veins” for “the leg muscles”

| SMILES | Local fluorescence intensity (C57BL/6 mice [1]) | Fluorescence intensity of liver (C57BL/6 mice [2]) | also measured |
| --- | --- | --- | --- |
| CCCCC/C=C\C/C=C\CCCCCCCC(=O)N(CCCCCO)C(C(=O)NCCN(C)CCNC(=O)C(C(C)C)N(CCCCCO)C(=O)CCCCCCC/C=C\C/C=C\CCCCC)C(C)C (stereo not shown) [A1I4R27C18-2] | 1.67E+04 |  |  |
| CCCC/C=C\C/C=C\CCCCCCCC(=O)N(CC1CCCO1)C(C(=O)NCCN(C)CCNC(=O)C(C(C)C)N(CC1CCCO1)C(=O)CCCCCCC/C=C\C/C=C\CCCCC)C(C)C (stereo not shown) [A1I4R35C18-2] | 3.38E+05 |  |  |
| CCCC/C=C\C/C=C\CCCCCCCC(=O)N(C(CC)COC)C(C(=O)NCCN(C)CCNC(=O)C(C(C)C)N(C(=O)CCCCCCC/C=C\C/C=C\CCCCC)C(CC)COC)C(C)C (stereo not shown) [A1I4R33C18-2] | 1.02E+05 |  |  |
| CCCC/C=C\C/C=C\CCCCCCCC(=O)N(CC(OC)OC)C(C(=O)NCCN(C)CCNC(=O)C(C(C)C)N(CC(OC)OC)C(=O)CCCCCCC/C=C\C/C=C\CCCCC)C(C)C (stereo not shown) [A1I4R34C18-2] | 5.58E+05 |  |  |
| CCCCC/C=C\C/C=C\CCCCCCCC(=O)N(C(C(=O)NCCN(C)CCNC(=O)C(C(C)C)N(C(=O)CCCCCCC/C=C\C/C=C\CCCCC)C(CO)(CO)CO)C(C)C)C(O)(CO)CO (stereo not shown) [A1I4R30C18-2] | 2.05E+04 |  |  |
| CCCCC/C=C\C/C=C\CCCCCCCC(=O)N(CCCCCCO)C(C(=O)NCCN(C)CCNC(=O)C(C(C)C)N(CCCCCCO)C(=O)CCCCCCC/C=C\C/C=C\CCCCC)C(C)C (stereo not shown) [A1I4R28C18-2] | 1.72E+06 |  |  |
| CCCCC/C=C\C/C=C\CCCCCCCC(=O)N(CC1CCOCC1)C(C(=O)NCCN(C)CCNC(=O)C(C(C)C)N(CC1CCOCC1)C(=O)CCCCCCC/C=C\C/C=C\CCCCC)C(C)C (stereo not shown) [A1I4R48C18-2] | 8.55E+04 |  |  |
| CCCC/C=C\C/C=C\CCCCCCCC(=O)N(CCOCCO)C(C(=O)NCCN(C)CCNC(=O)C(C(C)C)N(CCOCCO)C(=O)CCCCCCC/C=C\C/C=C\CCCCC)C(C)C (stereo not shown) [A1I4R36C18-2] | 5.68E+04 |  |  |
| CCCCCCCCCCCCCCCCCC(=O)N(CCN1CCCCCC1)C(C(=O)NCCN(C)CCNC(=O)C(C1CC1)N(CCN1CCCCCC1)C(=O)CCCCCCCCCCCCCCCCC)C1CC1 (stereo not shown) [A21I4R13C18] |  |  | Fluorescence intensity of spleen (C57BL/6 mice [2]; compounds of Example 2): 1.12E+03 |
| CCCCCCCCCCCCCCCCCC(=O)N(CCN1CCCCCC1)C(C(=O)NCCN(C)CCNC(=O)C(C(C)C)N(CCN1CCCCCC1)C(=O)CCCCCCCCCCCCCCCCC)C(C)C (stereo not shown) [A1I4R13C18] |  |  | Bioluminescence intensity (C57BL/6 mice [2]; compounds of Example 2): 5.76E+02 |
| CC/C=C\C/C=C\C/C=C\CCCCCCCC(=O)N(CCN(C)C)C(C(=O)NCCCCCCCCCCCCCCCCCC)C1CCCCC1 (stereo not shown) [A23I18R1C18-3] |  | 4.14E+06 |  |
| CCCCCCCCCCCCC#CC#CCCCCCCCCC(=O)N(CCCN(C)C)C(C(=O)NCCCCCCCCCCCCCCCCCC)C(C)C (stereo not shown) [A1I18R2C23] |  | 2.70E+05 |  |
| CC/C=C\C/C=C\C/C=C\CCCCCCCC(=O)N(CCCN(CC)CC)C(C(=O)NCCCCCCCCCCCCCCCCCC)C1CCCCC1 (stereo not shown) [A23I18R3C18-3] |  | 1.13E+06 |  |
| CCCCCCCCCCCCC#CC#CCCCCCCCCC(=O)N(CCN(C)C)C(C(=O)NCCCCCCCCCCCCCCCCCC)C1CCCCC1 (stereo not shown) [A23I18R1C23] |  | 6.11E+06 |  |
| CCCCC/C=C\C/C=C\CCCCCCCC(=O)N(CCN(C)C)C(C(=O)NCCCCCCCCCCCCCCCCCC)C1CCCCC1 (stereo not shown) [A23I18R1C18-2] |  | 8.25E+06 |  |
| CCCCC/C=C\C/C=C\CCCCCCCC(=O)N(CCO)C(C(=O)NCCN(C)CCNC(=O)C(C1CC1)N(CCO)C(=O)CCCCCCC/C=C\C/C=C\CCCCC)C1CC1 (stereo not shown) [A21I4R22C18-2] |  |  | Fluorescence intensity of spleen (C57BL/6 mice [2]; compounds of Example 2): 1.26E+03 |
| CCCCC/C=C\C/C=C\CCCCCCCC(=O)N(CCN(C)C)C(C(=O)NCCCCCCCCCCCCCCCCCC)C(C)C (stereo not shown) [A1I18R1C18-2] |  | 2.27E+05 |  |
| CCCCCCCCCCCCCC(=O)N(CCO)C(C(=O)NCCN(C)CCNC(=O)C(C(C)C)N(CCO)C(=O)CCCCCCCCCCCCC)C(C)C (stereo not shown) [A1I4R22C14] |  |  | Fluorescence intensity of spleen (C57BL/6 mice [2]; compounds of Example 2): 2.30E+03 |
| CCCCCCCCCCCCCCCCCCNC(=O)C(C(CC)CCCC)N(CCN(C)C)C(=O)CCCCCCCCCCCCCCCCC (stereo not shown) [A4I18R1C18] |  | 3.65E+05 |  |
